This is an account of results in ChEMBL document CHEMBL1150338, “Prediction and identification of drug interactions with the human ATP-binding cassette transporter multidrug-resistance associated protein 2 (MRP2; ABCC2)” (J Med Chem, 2008).

The target in the data set is MRP2 (ABCC2) (Homo sapiens, UniProt Q92887). Kind of data set: in vitro.
[1] abbreviates: probe estradiol-17-beta-glucuronide.
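Further: Inside-out membrane vesicles from Sf9 insect cells expressing human MRP2, measuring uptake of the estradiol glucuronide substrate, expressed as percent of untreated control.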

MRP2 (ABCC2), sequence (Q92887 whole entry): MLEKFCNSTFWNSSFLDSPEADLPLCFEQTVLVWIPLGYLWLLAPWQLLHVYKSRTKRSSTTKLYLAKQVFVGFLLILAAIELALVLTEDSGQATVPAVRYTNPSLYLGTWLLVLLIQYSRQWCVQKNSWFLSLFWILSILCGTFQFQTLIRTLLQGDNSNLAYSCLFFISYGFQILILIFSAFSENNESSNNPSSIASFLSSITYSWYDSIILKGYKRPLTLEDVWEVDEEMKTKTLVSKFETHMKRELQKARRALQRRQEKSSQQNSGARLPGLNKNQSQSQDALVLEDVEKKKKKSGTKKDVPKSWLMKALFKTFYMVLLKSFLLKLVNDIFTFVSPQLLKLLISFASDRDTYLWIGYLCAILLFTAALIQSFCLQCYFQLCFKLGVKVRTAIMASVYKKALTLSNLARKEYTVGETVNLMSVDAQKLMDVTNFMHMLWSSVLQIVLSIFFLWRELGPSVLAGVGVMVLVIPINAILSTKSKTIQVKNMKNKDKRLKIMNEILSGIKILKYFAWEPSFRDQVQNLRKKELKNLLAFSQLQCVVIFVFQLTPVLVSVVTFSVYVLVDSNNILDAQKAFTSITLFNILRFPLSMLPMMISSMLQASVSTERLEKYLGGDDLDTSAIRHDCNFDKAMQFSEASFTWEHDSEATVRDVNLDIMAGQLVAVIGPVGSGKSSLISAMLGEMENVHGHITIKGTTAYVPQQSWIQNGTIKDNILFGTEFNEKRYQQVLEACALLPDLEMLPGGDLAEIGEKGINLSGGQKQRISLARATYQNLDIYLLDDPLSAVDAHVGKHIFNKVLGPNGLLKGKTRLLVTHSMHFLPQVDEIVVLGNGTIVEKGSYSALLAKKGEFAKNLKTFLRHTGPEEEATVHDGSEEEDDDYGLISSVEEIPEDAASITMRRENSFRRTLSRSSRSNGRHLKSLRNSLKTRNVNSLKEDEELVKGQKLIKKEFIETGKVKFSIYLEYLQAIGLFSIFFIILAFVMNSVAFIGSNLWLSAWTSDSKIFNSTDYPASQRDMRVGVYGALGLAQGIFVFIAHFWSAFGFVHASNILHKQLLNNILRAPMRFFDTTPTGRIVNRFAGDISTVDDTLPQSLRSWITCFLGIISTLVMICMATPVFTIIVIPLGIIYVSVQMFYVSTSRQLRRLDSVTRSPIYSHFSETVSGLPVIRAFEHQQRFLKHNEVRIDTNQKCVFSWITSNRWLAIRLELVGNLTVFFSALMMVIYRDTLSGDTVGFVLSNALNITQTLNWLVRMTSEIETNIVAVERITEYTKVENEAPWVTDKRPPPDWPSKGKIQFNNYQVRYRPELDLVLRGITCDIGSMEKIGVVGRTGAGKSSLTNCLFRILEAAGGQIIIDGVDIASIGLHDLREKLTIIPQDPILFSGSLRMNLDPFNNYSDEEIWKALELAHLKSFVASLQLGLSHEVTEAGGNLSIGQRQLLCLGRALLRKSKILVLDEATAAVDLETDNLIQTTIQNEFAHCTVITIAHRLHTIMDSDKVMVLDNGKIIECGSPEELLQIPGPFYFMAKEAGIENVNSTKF
Description: Effect on human MRP2-mediated estradiol-17-beta-glucuronide transport in Sf9 cells inverted membrane vesicles relative to control

On to `N[C@@H](Cc1c[nH]c2ccccc12)C(=O)O` [TRYPTOPHAN], for which, under setting [1], the activity was determined as 66%.

Consider `CCCC1O[C@@H]2C[C@H]3[C@@H]4CCC5=CC(=O)C=C[C@]5(C)[C@H]4[C@@H](O)C[C@]3(C)[C@]2(C(=O)CO)O1` (some centres not stated) [BUDESONIDE], for which, under setting [1], the activity amounted to 150%.

`OCCN(CCO)c1nc(N2CCCCC2)c2nc(N(CCO)CCO)nc(N3CCCCC3)c2n1` [DIPYRIDAMOLE]: the activity under setting [1] is 42%.

Take `CN(C)CCC=C1c2ccccc2CCc2ccccc21` [AMITRIPTYLINE]: under setting [1], the activity worked out at 51%.

Regarding `C[C@@H](NCCc1ccc(O)cc1)[C@@H](O)c1ccc(O)cc1` [RITODRINE], the activity under setting [1] is 113%.

Consider `COc1cc2c(c(OC)c1OC)-c1ccc(OC)c(=O)cc1[C@@H](NC(C)=O)CC2` [COLCHICINE], for which the activity under setting [1] was 101%.

As to `CC(C)(C)NC(=O)[C@@H]1C[C@@H]2CCCC[C@@H]2CN1C[C@@H](O)[C@H](Cc1ccccc1)NC(=O)[C@H](CC(N)=O)NC(=O)c1ccc2ccccc2n1`, under setting [1], the activity worked out at 41%.

With `C[C@H](CS)C(=O)N1CCC[C@H]1C(=O)O` [CAPTOPRIL], the activity under setting [1] was determined as 104%.

On to `COc1ccc(-c2coc3cc(O)cc(O)c3c2=O)cc1` [BIOCHANIN], for which the activity under setting [1] turned out to be 84%.

Regarding `Cc1cnc(C(=O)NCCc2ccc(S(=O)(=O)NC(=O)NC3CCCCC3)cc2)cn1` [GLIPIZIDE], the activity under setting [1] stood at 81%.

In the case of `CCS(=O)(=O)CCn1c([N+](=O)[O-])cnc1C` [TINIDAZOLE], under setting [1], the activity was 55%.

For the compound `C[C@]12C=CC(=O)C=C1CC[C@@H]1[C@@H]2C(=O)C[C@@]2(C)[C@H]1CC[C@]2(O)C(=O)CO` [PREDNISONE], the activity under setting [1] turned out to be 51%.

As for `NNC(=O)c1ccncc1` [ISONIAZID], under setting [1], the activity was 96%.

Take `C[C@@H]1CN(c2c(F)c(N)c3c(=O)c(C(=O)O)cn(C4CC4)c3c2F)C[C@H](C)N1` [SPARFLOXACIN]: the activity under setting [1] amounted to 138%.

For the compound `CC[C@]1(O)C[C@H]2CN(CCc3c([nH]c4ccccc34)[C@@](C(=O)OC)(c3cc4c(cc3OC)N(C=O)[C@H]3[C@@](O)(C(=O)OC)[C@H](OC(C)=O)[C@]5(CC)C=CCN6CC[C@]43[C@@H]65)C2)C1` [VINCRISTINE], the activity under setting [1] came out at 82%.

On to `CCc1oc2ccccc2c1C(=O)c1cc(Br)c(O)c(Br)c1` [BENZBROMARONE], for which the activity under setting [1] stood at 11%.

With `COc1cc2ncnc(Nc3ccc(F)c(Cl)c3)c2cc1OCCCN1CCOCC1` [GEFITINIB], the activity (sf9) was determined as 74%.

Regarding `COc1ccc(Cl)cc1C(=O)NCCc1ccc(S(=O)(=O)NC(=O)NC2CCCCC2)cc1` [GLYBURIDE], the activity under setting [1] is 304%.

With `NS(=O)(=O)c1cc(C(=O)O)c(NCc2ccco2)cc1Cl` [FUROSEMIDE], the activity under setting [1] was found to be 118%.

Turning to `C[C@H]1O[C@@H](O[C@H]2[C@@H](O)C[C@H](O[C@H]3[C@@H](O)C[C@H](O[C@H]4CC[C@@]5(C)[C@H](CC[C@@H]6[C@@H]5C[C@@H](O)[C@]5(C)[C@@H](C7=CC(=O)OC7)CC[C@]65O)C4)O[C@@H]3C)O[C@@H]2C)C[C@H](O)[C@@H]1O` [DIGOXIN], the activity under setting [1] worked out at 99%.

As to `CC1=C(CC(=O)O)c2cc(F)ccc2/C1=C\c1ccc(S(C)(=O)=O)cc1` [EXISULIND], under setting [1], the activity was found to be 113%.

Regarding `COC(=O)[C@H]1[C@H]2C[C@@H]3c4[nH]c5cc(OC)ccc5c4CCN3C[C@H]2C[C@@H](OC(=O)c2cc(OC)c(OC)c(OC)c2)[C@@H]1OC` [RESERPINE], the activity (sf9) came to 37%.

Consider `CN1C(C(=O)Nc2ccccn2)=C(O)c2ccccc2S1(=O)=O` [PIROXICAM], for which, under setting [1], the activity was 100%.

For the compound `C[C@H](CCC(=O)O)[C@H]1CC[C@H]2[C@@H]3[C@H](O)C[C@@H]4C[C@H](O)CC[C@]4(C)[C@H]3CC[C@]12C` [CHENODIOL], under setting [1], the activity amounted to 101%.

As for `CC(C)[C@H](N)C(=O)OCCOCn1cnc2c(=O)[nH]c(N)nc21` [VALACYCLOVIR], the activity under setting [1] amounted to 94%.

With `C[C@]12CCC(=O)C=C1CC[C@@H]1[C@@H]2[C@@H](O)C[C@@]2(C)[C@H]1CC[C@]2(O)C(=O)CO` [HYDROCORTISONE], the activity under setting [1] is 124%.

As for `O=C(O)[C@H]1O[C@@H](Oc2ccc([N+](=O)[O-])cc2)[C@H](O)[C@@H](O)[C@@H]1O`, the activity under setting [1] came out at 99%.
